# Measurements from ChEMBL document CHEMBL1201862, “PubChem BioAssay data set” (2004).
# Active and inactive are the calls of the source.
# What was measured:
# [1] = target: T1, Long-chain-fatty-acid--AMP ligase FadD28 (Mycobacterium tuberculosis, UniProt P9WQ59); assay: Fluorescence polarization aasay to screen for inhibitors that compete for the binding of FadD28 to a bisubstrate Measured in Biochemical System Using Plate Reader - 2147-01_Inhibitor_Dose_CherryPick_Activity.; assay type: functional, Mycobacterium tuberculosis H37Rv
# T1 sequence (P9WQ59 whole entry): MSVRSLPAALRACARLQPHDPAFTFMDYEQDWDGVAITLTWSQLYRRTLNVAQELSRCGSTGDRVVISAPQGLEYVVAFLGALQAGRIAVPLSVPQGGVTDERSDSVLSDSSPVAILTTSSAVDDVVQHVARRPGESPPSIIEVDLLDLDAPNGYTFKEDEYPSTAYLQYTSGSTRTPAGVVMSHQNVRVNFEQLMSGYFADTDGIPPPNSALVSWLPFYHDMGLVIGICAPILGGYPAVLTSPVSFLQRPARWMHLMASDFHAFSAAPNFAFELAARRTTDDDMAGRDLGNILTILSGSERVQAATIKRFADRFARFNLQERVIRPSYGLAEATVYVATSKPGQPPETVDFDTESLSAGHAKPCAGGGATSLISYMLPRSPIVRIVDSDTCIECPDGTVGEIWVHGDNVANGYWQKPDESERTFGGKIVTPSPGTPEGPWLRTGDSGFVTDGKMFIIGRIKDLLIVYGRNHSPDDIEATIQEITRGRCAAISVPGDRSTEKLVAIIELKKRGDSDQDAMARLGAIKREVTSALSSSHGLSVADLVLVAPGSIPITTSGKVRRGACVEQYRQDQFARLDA
# [2] = A cytotoxicity screen of small molecule inhibitors of the PhoP region in Salmonella typhi identified in the primary screen. [Related pubchem assays: 1850, 1864, 1985 ]; assay type: functional
# [3] = viability of uninfected HEp-2 cells – cell-based, HTS, cytotoxicity control for RSV inhibitor project, dose response (AID 2410); assay type: functional; details: human respiratory syncytial virus
# [4] = blockers of HIV-1 envelope-mediated cell-cell fusion – cherry-pick, dose response (AID 652057); assay type: functional, cell-based
# [5] = blockers of HIV-1 ZM109 envelope-driven cell-cell fusion – HeLa effector, CEM target cells, luciferase, cherry-pick, dose response (AID 652058); assay type: functional, cell-based;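 also: luciferase signal from HIV-1 Env mediated cell-cell fusion of effector and target cells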
# [6] = off-target signal loss in HeLa-CEM21 co-culture – HeLa F-luc CTL cells, cherry-picked, counter-screen for HIV-1 Env fusion inhibitor project, dose response (AID 652040); assay type: functional, cell-based;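 also: potency for signal decrease marking cytotoxic or nonspecific inhibition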
# [7] = HIV-1 AD8 envelope cell-cell fusion blockers – cherry-pick, dose response (AID 652062); assay type: functional, cell-based;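 also: luciferase signal from cell-cell fusion driven by HIV-1 clade B AD8 Env; potency is for inhibitors of fusion seen as a drop in luminescence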
# [8] = target: T2, RNA-binding protein pos-1 (Caenorhabditis elegans, UniProt G5EF15); assay: disruptors of C. elegans POS-1 RNA interaction – biochemical, fluorescence polarization, dose response (AID 1964);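 also: purified POS-1 fused to maltose binding protein made in E. coli; potency of compounds blocking POS-1 binding to fluorescent RNA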
# T2 sequence (G5EF15 whole entry): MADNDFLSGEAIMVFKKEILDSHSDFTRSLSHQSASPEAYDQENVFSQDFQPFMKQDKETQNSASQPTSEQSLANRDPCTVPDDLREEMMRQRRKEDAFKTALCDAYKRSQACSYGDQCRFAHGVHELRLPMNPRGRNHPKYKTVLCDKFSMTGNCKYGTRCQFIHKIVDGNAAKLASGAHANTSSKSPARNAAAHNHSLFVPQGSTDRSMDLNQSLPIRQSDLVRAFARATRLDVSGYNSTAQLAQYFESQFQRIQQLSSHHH
# [9] = target: T3, Zinc finger protein mex-5 (Caenorhabditis elegans, UniProt Q9XUB2); assay: potency of MEX-5 RNA-binding blockers – biochemical, C. elegans, fluorescence polarization, dose response (AID 1960)
# T3 sequence (Q9XUB2 whole entry): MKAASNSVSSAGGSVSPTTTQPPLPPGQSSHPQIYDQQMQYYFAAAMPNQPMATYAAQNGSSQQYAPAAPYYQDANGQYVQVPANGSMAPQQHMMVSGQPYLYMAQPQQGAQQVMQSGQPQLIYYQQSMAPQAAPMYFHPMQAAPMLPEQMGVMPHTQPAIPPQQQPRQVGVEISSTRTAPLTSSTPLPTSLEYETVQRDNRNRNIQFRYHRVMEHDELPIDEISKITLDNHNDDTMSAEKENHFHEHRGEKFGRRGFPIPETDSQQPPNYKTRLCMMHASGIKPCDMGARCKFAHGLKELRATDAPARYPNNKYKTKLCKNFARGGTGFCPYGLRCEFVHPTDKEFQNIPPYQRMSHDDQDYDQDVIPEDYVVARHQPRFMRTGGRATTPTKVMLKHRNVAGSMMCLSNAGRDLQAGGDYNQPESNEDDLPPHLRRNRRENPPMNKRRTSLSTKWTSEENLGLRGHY
# [10] = target: T4, Protein Tat (Human immunodeficiency virus type 1 group M subtype B (isolate HXB2)(HIV-1), UniProt P04608); assay type: functional;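 also: tat binding to TAR RNA read out by fluorescence polarization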
# T4 sequence (P04608 whole entry): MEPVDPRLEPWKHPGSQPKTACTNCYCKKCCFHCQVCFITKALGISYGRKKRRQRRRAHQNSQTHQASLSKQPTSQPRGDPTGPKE
# [11] = viability loss in THP-1 monocytes – THP-1 cells, cytotoxicity control for Vif-APOBEC3G degradation inhibitor project, dose response (AID 1117359); assay type: functional; details: THP-1
# [12] = target: T5, Corticotropin-releasing factor receptor 2/Corticotropin-releasing factor-binding protein (Homo sapiens, UniProt P24387+Q13324); assay: Dose Response confirmation of uHTS hits for small molecule antagonists of the CRF-binding protein and CRF-R2 receptor complex.; assay type: functional; details: read-out: IC50_Mean
# T5 sequence (Q13324 whole entry): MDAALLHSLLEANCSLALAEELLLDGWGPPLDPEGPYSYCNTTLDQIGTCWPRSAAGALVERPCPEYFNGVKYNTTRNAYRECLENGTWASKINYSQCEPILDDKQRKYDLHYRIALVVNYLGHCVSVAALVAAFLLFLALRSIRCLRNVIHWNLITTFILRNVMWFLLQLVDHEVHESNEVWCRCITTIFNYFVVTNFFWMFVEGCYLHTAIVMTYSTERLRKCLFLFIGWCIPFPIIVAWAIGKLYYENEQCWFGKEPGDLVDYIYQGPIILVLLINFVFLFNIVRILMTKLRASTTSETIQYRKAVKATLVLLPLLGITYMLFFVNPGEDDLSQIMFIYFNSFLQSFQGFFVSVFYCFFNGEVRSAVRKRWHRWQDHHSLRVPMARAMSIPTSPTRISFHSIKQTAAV
# T5 sequence (P24387 whole entry): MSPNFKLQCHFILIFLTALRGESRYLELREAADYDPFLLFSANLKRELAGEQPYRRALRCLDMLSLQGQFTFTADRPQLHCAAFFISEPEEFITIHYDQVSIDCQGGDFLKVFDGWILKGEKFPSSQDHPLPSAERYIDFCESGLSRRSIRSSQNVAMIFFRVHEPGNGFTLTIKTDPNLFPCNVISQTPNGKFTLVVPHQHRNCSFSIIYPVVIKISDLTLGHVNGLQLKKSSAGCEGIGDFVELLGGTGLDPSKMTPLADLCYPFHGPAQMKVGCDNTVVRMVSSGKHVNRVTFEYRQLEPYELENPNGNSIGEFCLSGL
# [13] = target: T5, Corticotropin-releasing factor receptor 2/Corticotropin-releasing factor-binding protein; assay: activators of CRF receptor 2 with binding protein – uHTS hits, confirmation (AID 602473); assay type: functional; details: read-out: EC50_Mean
# [14] = target: T6, Caspase-6 (Homo sapiens, UniProt P55212); assay: inhibition of CASP6 peptide cleavage – biochemical, VEID-R110 fluorescence, cherry-pick, dose response (AID 720632)
# T6 sequence (P55212 whole entry): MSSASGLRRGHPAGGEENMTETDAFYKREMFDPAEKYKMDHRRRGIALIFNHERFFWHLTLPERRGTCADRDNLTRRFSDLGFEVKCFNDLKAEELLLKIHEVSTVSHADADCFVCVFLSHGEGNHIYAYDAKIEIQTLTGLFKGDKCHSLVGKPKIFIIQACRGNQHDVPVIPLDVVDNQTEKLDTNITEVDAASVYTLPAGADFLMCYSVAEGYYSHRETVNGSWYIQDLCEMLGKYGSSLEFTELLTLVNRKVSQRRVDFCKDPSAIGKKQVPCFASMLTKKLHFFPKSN
# [15] = test system: H9c2; assay: cells; assay type: functional, cell-based; details: Rattus norvegicus, H9c2, Myocardium;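 also: confirmatory concentration-response retest of ultra-high-throughput screening hits for modulation of myocardial damage; cell death induced by hydrogen peroxide oxidative stress; compound pretreatment for 60 min then peroxide exposure for 2 h; potency is for protecting the cells against peroxide damage rather than for killing them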
# [16] = target: Disintegrin and metalloproteinase domain-containing protein 17 (Homo sapiens, UniProt P78536); assay: exosite inhibitors of ADAM17, dose response, biochemical (AID 743260)
# Disintegrin and metalloproteinase domain-containing protein 17, sequence (P78536 whole entry, the tested form may be a part): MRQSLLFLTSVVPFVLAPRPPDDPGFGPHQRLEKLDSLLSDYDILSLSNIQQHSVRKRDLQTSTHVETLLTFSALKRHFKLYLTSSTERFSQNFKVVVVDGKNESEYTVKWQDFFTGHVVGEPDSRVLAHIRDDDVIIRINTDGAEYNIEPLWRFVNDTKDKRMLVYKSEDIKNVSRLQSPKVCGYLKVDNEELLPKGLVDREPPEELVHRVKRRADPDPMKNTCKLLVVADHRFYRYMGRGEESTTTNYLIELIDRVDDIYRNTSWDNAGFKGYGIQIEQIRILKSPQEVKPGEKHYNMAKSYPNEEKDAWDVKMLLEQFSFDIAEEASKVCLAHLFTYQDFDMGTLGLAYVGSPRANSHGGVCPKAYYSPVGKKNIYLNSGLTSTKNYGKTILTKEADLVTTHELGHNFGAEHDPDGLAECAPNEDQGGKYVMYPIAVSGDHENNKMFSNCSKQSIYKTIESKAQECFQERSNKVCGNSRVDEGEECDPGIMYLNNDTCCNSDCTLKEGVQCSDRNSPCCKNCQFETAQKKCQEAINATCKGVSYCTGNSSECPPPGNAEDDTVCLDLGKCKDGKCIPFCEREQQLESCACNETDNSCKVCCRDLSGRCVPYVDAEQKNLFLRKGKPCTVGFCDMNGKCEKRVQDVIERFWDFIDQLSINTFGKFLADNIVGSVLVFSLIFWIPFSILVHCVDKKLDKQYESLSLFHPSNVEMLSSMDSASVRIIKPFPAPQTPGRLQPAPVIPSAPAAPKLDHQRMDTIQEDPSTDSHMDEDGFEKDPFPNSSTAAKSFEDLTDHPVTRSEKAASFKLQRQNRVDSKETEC
# [17] = A549 cell cytotoxicity, dose response, cytotoxicity control, plate reader, cherry-pick, antagonist series (AID 743412); assay type: functional, cell-based
# [18] = toxicity toward HepG2 liver cells – cell-based, plate reader, cherry-pick, antagonist series, cytotoxicity control, dose response (AID 743416); assay type: functional
# [19] = viability loss in HEK293 cells – cell-based, plate reader, cherry-picked samples, cytotoxicity control, dose response (AID 743446); assay type: functional
# [20] = blockers of bursicon-stimulated LGR2 cAMP reporter – cell-based, HEK293, CRE-luciferase reporter, cherry pick, set 2, dose response (AID 743343); assay type: functional;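 also: transfected cells were stimulated with diluted bursicon conditioned medium after compound addition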
# [21] = blockade of melanocortin 4 receptor signaling – cell-based, plate reader, cherry pick, counter-screen for LGR2 antagonist project, dose response (AID 743444); assay type: functional;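 also: transfected HEK 293 cells stimulated with alpha-MSH peptide; potency of inhibitors of the alpha-MSH evoked signal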
# [22] = HPDE-C7 pancreatic duct cell viability loss – fluorescence, HTS (AID 430); assay type: functional, cell-based; details: Homo sapiens
# [23] = viability loss of HPDE-C7K cells – cell-based, fluorescence, HTS, primary screen (AID 431); assay type: functional; details: Homo sapiens
compound,measurement,setting,value
COc1cccc(C2CC(c3ccccc3)=NN2S(=O)(=O)c2ccccc2)c1OC (configuration not stated),AC50,[1],62.2 µM (active)
CCCC1(c2ccccc2)NC(=O)N(CC(=O)Nc2ccccc2C(F)(F)F)C1=O (configuration not stated),EC50,[2],> 50 µM (active)
CC(=O)Nc1ccc(/N=C(/C2=C(O)c3ccccc3C2=O)c2ccccc2)cc1,AC50,[1],> 100 µM (inactive)
CC[C@@]12C(=O)N(c3ccc(C)cc3)C(=O)N1[C@H](c1ccc(Br)cc1)[C@@H]1C(=O)N(C(C)(C)C)C(=O)[C@@H]12,CC50,[3],> 50 µM (active)
same,AC50,[4],0.301 µM (active)
same,AC50,[5],< 0.5 µM (active)
same,AC50,[6],0.559 µM (active)
same,AC50,[7],1.06 µM (active)
Cc1cccc(N2C(=O)/C(=C/c3ccc(CN(CCC#N)S(C)(=O)=O)o3)C(=O)NC2=S)c1,EC50,[8],67 µM (active)
same,EC50,[9],41.2 µM (active)
same,IC50,[10],> 100 µM (active)
Cn1cccc1/C=C1/C(=O)NC(=O)N(Cc2ccc(F)cc2)C1=O,CC50,[11],> 40 µM (active)
Cc1ccc(S(=O)(=O)NCCC(=O)N2CCN(C/C=C/c3ccccc3)CC2)cc1,CC50,[11],> 40 µM (active)
COc1ccccc1N1CCN(CC(O)COCCOc2ccc(Br)cc2)CC1 (configuration not stated),CC50,[11],29.9 µM (active)
CC(C)CC(NC(=O)/C(=C/c1ccco1)NC(=O)c1ccc(Br)o1)C(=O)O (configuration not stated),IC50,[12],> 47.1 µM (inactive)
same,EC50,[13],> 53 µM (inactive)
same,IC50,[10],> 100 µM (active)
O=C(Cc1ccccc1)N1CCCCN2[C@H](CO)[C@@H](c3ccc(C#Cc4ccccc4)cc3)[C@H]2C1,AC50,[14],47.3 µM (active)
O=C1OCCN1C(=O)[C@H]1[C@H](c2ccc([N+](=O)[O-])cc2)C(c2ccccc2)=NN1c1ccc(Br)cc1,IC50,[15],15.2 µM (active)
same,IC50,[16],> 69.5 µM (inactive)
CC(OC(=O)CC1CCCC1)C(=O)Nc1ccc(Cl)cn1 (configuration not stated),CC50,[11],> 40 µM (active)
CCc1ccccc1N=C(S)N(Cc1cccc(C)c1)c1cccnc1,EC50,[2],> 50 µM (active)
COc1ccc(C(=O)NCc2ccc(C)cc2)cc1S(=O)(=O)N1CCCC1,AC50,[1],19 µM (active)
CC(C)(C)c1nc2ccc(Cl)cn2c1CC1CCCCC1,AC50,[17],> 52 µM (inactive)
same,AC50,[18],> 52 µM (inactive)
same,AC50,[19],> 52 µM (inactive)
C=C1CCN([C@H](C(=O)OCc2ccc(C)cc2)C(C)C)S(=O)(=O)c2ccccc21,AC50,[4],3.35 µM (active)
same,AC50,[5],7.43 µM (active)
same,AC50,[6],5.69 µM (active)
same,AC50,[7],13.2 µM (active)
Cc1ccsc1/C=N/Nc1ccc(C(=O)O)cc1,EC50,[2],> 50 µM (active)
O=C(NN1C(=O)C2CC=C(Cl)CC2C1=O)c1ccncc1 (configuration not stated),AC50,[14],16.5 µM (active)
Cc1ccsc1/C=N\NC(=O)c1[nH]nc2c1CCC2,AC50,[17],3.65 µM (active)
same,AC50,[18],4.37 µM (active)
same,AC50,[20],6.59 µM (active)
same,AC50,[21],7.75 µM (active)
same,AC50,[19],16.4 µM (active)
O=C1CCCC2=C1C(c1ccc(Cl)cc1)C1C(=O)c3ccccc3C1=N2 (configuration not stated),CC50,[3],17 µM (active)
same,AC50,[1],> 100 µM (inactive)
Cc1ccc(-c2nnc(N3CCN(c4ccccn4)CC3)c3ccccc23)cc1,EC50,[22],16.5 µM (active)
same,EC50,[23],16.7 µM (active)
Cc1cc(/C=N/NC(=O)C(O)(c2ccccc2)c2ccccc2)c(C)n1-c1cccc(C(=O)O)c1,AC50,[14],1.78 µM (active)
